We go through 40 compounds from patent US20260035384A1, “COMPOUND CONTAINING CYCLOHEXYL” (CHIA TAI TIANQING PHARMACEUTICAL GROUP CO., LTD., priority 2022, published 2026).

One test deals with VCaP cells. The experiment in a line: Assay on inhibitory activity for VCaP cell proliferation (CCK-8). It counts as cell-based. To be noted: 168 h incubation. As to the method:
(§1) 2.1 Assay on inhibitory activity for VCaP cell proliferation VCaP cells in a good growth state were taken, washed with PBS, digested with pancreatin, and added with 5% CSS—FBS phenol red-free DMEM complete medium to terminate the digestion. The cells were collected by using a centrifuge tube, adjusted to a cell density of 1×10^5 cells/mL, and seeded in a 96-well plate (100 μL/well). Meanwhile, compounds were added using a nanoliter pipettor such that the final concentrations of the compounds were 10000 nM-0.61 nM. Two duplicate wells were set for each concentration, and meanwhile, a control was set. After another 168 h of incubation in the cell incubator, the detection reagent CCK-8 (manufacturer: Dojindo, 10 μL/well) was added.

A further test has as its system LNCaP cells. The experiment in a line: Assay on inhibitory activity for LNCaP cell proliferation (CCK-8). It counts as cell-based. To be noted: 168 h incubation. As to the method: as §1, with “LNCaP” for “2.1 Assay on inhibitory activity for VCaP cell proliferation VCaP”, “2%” for “5%”, “1640” for “DMEM”

Turning to `N#Cc1ccc(O[C@H]2CC[C@H](NC(=O)c3ccc(N4CCN(CC5Cc6ccc7c(C8CCC(=O)NC8=O)coc7c6C5)CC4)nn3)CC2)cc1Cl` (some centres unmarked) [Compound 28], the IC50 (commonly the concentration at which inhibition is half-maximal) in the test with VCaP cells (Homo sapiens, VCaP, 168 h) was under 100 nM; in the test with LNCaP cells (Homo sapiens) it was under 1000 nM.
The like results for `N#Cc1ccc(O[C@H]2CC[C@H](NC(=O)c3ccc(N4CCC(CN5CCC(n6ccc7c8c(C9CCC(=O)NC9=O)noc8ccc76)CC5)CC4)nn3)CC2)cc1Cl` (some centres unmarked) [Compound 41] were, in that order, under 10 nM and under 1000 nM.
The compound `N#Cc1ccc(O[C@H]2CC[C@H](NC(=O)c3ccc(N4CCC(CN5CC(n6ncc7c8c(C9CCC(=O)NC9=O)noc8ccc76)C5)CC4)nn3)CC2)cc1Cl` (some centres unmarked) [Compound 42] returned an IC50 in the test on VCaP cells (Homo sapiens, VCaP, 168 h) of under 10 nM.
Take `N#Cc1ccc(O[C@H]2CC[C@H](NC(=O)c3ccc(C4CCN(C5CC(n6ncc7c8c(C9CCC(=O)NC9=O)noc8ccc76)C5)CC4)nn3)CC2)cc1Cl` (some centres unmarked) [Compound 46]: the IC50 in the test on VCaP cells (Homo sapiens, VCaP, 168 h) was under 10 nM; with LNCaP cells (Homo sapiens), under 1000 nM.
In the test with VCaP cells (Homo sapiens), `CN(c1ccc(C#N)c(Cl)c1)[C@H]1CC[C@H](NC(=O)c2ccc(N3CCC(CN4CCc5ccc6c(C7CCC(=O)NC7=O)noc6c5CC4)CC3)cc2)CC1` (some centres unmarked) [Compound 59] displayed an IC50 of under 10 nM.
Regarding `CN(c1ccc(C#N)c(Cl)c1)[C@H]1CC[C@H](NC(=O)c2ccc(C3CCN(CC4Cc5ccc6c(C7CCC(=O)NC7=O)noc6c5C4)CC3)cc2)CC1` (some centres unmarked) [Compound 68], in the test with VCaP cells (Homo sapiens, VCaP, 168 h), the IC50 is under 10 nM.
With `N#Cc1ccc(O[C@H]2CC[C@H](NC(=O)c3ccc(N4CCC(N5CC(CN6CCc7ccc8c(C9CCC(=O)NC9=O)noc8c7CC6)C5)CC4)nn3)CC2)cc1Cl` (some centres unmarked) [Compound 93], the IC50 is under 10 nM in the test on VCaP cells (Homo sapiens, VCaP, 168 h) and under 1000 nM in the test on LNCaP cells (Homo sapiens).
For `N#Cc1ccc(O[C@H]2CC[C@H](NC(=O)c3ccc(N4CCC(N5CC(CN6CCc7ccc8c(C9CCC(=O)NC9=O)coc8c7CC6)C5)CC4)nn3)CC2)cc1Cl` (some centres unmarked) [Compound 99], in that order: under 100 nM and under 1000 nM.
With `N#Cc1ccc(O[C@H]2CC[C@H](NC(=O)c3ccc(N4CCC(N5CC(CN6Cc7cc8onc(C9CCC(=O)NC9=O)c8cc7C6)C5)CC4)nn3)CC2)cc1Cl` (some centres unmarked) [Compound 101], the IC50 with VCaP cells (Homo sapiens, VCaP, 168 h) is under 10 nM.
Turning to `N#Cc1ccc(O[C@H]2CC[C@H](NC(=O)c3cnc(N4CCC(N5CC(CN6Cc7ccc8c(C9CCC(=O)NC9=O)coc8c7C6)C5)CC4)nc3)CC2)cc1Cl` (some centres unmarked) [Compound 103], the IC50 in the test on VCaP cells (Homo sapiens, VCaP, 168 h) is under 10 nM.
Same read-out and setting: under `N#Cc1ccc(O[C@H]2CC[C@H](NC(=O)c3cnc(N4CCC(N5CC(CN6CCc7ccc8c(C9CCC(=O)NC9=O)coc8c7C6)C5)CC4)nc3)CC2)cc1Cl` (some centres unmarked) [Compound 104] stands under 10 nM; under `N#Cc1ccc(O[C@H]2CC[C@H](NC(=O)c3cnc(N4CCC(N5CC(CN6CCc7c(ccc8c(C9CCC(=O)NC9=O)coc78)C6)C5)CC4)nc3)CC2)cc1Cl` (some centres unmarked) [Compound 105], under 10 nM.
Same read-out and setting: as for `N#Cc1ccc(O[C@H]2CC[C@H](NC(=O)c3cnc(N4CCC(N5CC(CN6CCc7ccc8c(C9CCC(=O)NC9=O)coc8c7CC6)C5)CC4)nc3)CC2)cc1Cl` (some centres unmarked) [Compound 106], the figure is under 100 nM.
Take `N#Cc1ccc(O[C@H]2CC[C@H](NC(=O)c3cnc(C4CCN(C5CN(CC6Cc7ccc8c(C9CCC(=O)NC9=O)coc8c7C6)C5)CC4)nc3)CC2)cc1Cl` (some centres unmarked) [Compound 111]: the IC50 was under 100 nM with VCaP cells and under 1000 nM with LNCaP cells (Homo sapiens).
For `N#Cc1ccc(O[C@H]2CC[C@H](NC(=O)c3cnc(C4CCN(C5CN(CC6Cc7ccc8c(C9CCC(=O)NC9=O)coc8c7C6)C5)CC4)nc3)CC2)cc1Cl` (some centres unmarked) [Compound 112], the IC50 with VCaP cells and with LNCaP cells was under 1000 nM each time.
With `CN(c1ccc(C#N)c(Cl)c1)[C@H]1CC[C@H](NC(=O)c2cnc(N3CC(CN4CCc5c(ccc6c(C7CCC(=O)NC7=O)noc56)C4)C3)nc2)CC1` (some centres unmarked) [Compound 114], the IC50 with VCaP cells (Homo sapiens, VCaP, 168 h) was under 100 nM; with LNCaP cells (Homo sapiens), under 1000 nM.
For the compound `CN(c1ccc(C#N)c(Cl)c1)[C@H]1CC[C@H](NC(=O)c2cnc(N3CCC(CN4Cc5ccc6c(C7CCC(=O)NC7=O)noc6c5C4)CC3)nc2)CC1` (some centres unmarked) [Compound 115], the IC50 in the test with VCaP cells (Homo sapiens, VCaP, 168 h) was under 1000 nM.
With `CN(c1ccc(C#N)c(Cl)c1)[C@H]1CC[C@H](NC(=O)c2cnc(N3CCC(CN4CCc5ccc6c(C7CCC(=O)NC7=O)noc6c5C4)CC3)nc2)CC1` (some centres unmarked) [Compound 116], the IC50 with LNCaP cells (Homo sapiens) is under 1000 nM.
For `N#Cc1ccc(O[C@H]2CC[C@H](NC(=O)c3cnc(N4CCC(CN5CCc6ccc7c(C8CCC(=O)NC8=O)noc7c6C5)CC4)nc3)CC2)cc1Cl` (some centres unmarked) [Compound 120], the IC50 was under 1000 nM in the test on VCaP cells (Homo sapiens, VCaP, 168 h) and under 1000 nM with LNCaP cells (Homo sapiens).
For `N#Cc1ccc(O[C@H]2CC[C@H](NC(=O)c3cnc(N4CCC(CN5CCc6c(ccc7c(C8CCC(=O)NC8=O)noc67)C5)CC4)nc3)CC2)cc1Cl` (some centres unmarked) [Compound 121], the IC50 in the test on VCaP cells (Homo sapiens, VCaP, 168 h) was under 10 nM; with LNCaP cells (Homo sapiens) it was under 1000 nM.
The like results for `N#Cc1ccc(O[C@H]2CC[C@H](NC(=O)c3cnc(N4CCN(CC5Cc6ccc7c(C8CCC(=O)NC8=O)noc7c6C5)CC4)nc3)CC2)cc1Cl` (some centres unmarked) [Compound 123] were, in that order, under 1000 nM and under 1000 nM.
In the test on VCaP cells, `N#Cc1ccc(O[C@H]2CC[C@H](NC(=O)c3cnc(N4CCN(CC5Cc6ccc7c(C8CCC(=O)NC8=O)noc7c6C5)CC4)nc3)CC2)cc1Cl` (some centres unmarked) [Compound 124] yielded an IC50 of under 1000 nM.
In the test on VCaP cells (Homo sapiens, VCaP, 168 h), `N#Cc1ccc(O[C@H]2CC[C@H](NC(=O)c3cnc(C4CCN(CC5Cc6ccc7c(C8CCC(=O)NC8=O)noc7c6C5)CC4)nc3)CC2)cc1Cl` (some centres unmarked) [Compound 125] yielded an IC50 of under 1000 nM.
On the same count and under the same terms, under `N#Cc1ccc(O[C@H]2CC[C@H](NC(=O)c3cnc(C4=CCN(CC5Cc6ccc7c(C8CCC(=O)NC8=O)noc7c6C5)CC4)nc3)CC2)cc1Cl` (some centres unmarked) [Compound 127] stands under 100 nM.
Turning to `N#Cc1ccc(O[C@H]2CC[C@H](NC(=O)c3cnc(N4CCC5(CC4)CC(CN4Cc6ccc7c(C8CCC(=O)NC8=O)noc7c6C4)C5)nc3)CC2)cc1Cl` (some centres unmarked) [Compound 128], the IC50 was under 100 nM in the test on VCaP cells (Homo sapiens, VCaP, 168 h) and under 1000 nM in the test on LNCaP cells (Homo sapiens).
For `N#Cc1ccc(O[C@H]2CC[C@H](NC(=O)c3cnc(N4CCC5(CC4)CC(CN4CCc6ccc7c(C8CCC(=O)NC8=O)noc7c6C4)C5)nc3)CC2)cc1Cl` (some centres unmarked) [Compound 129], the IC50 in the test with VCaP cells (Homo sapiens, VCaP, 168 h) is under 100 nM; in the test with LNCaP cells (Homo sapiens), under 1000 nM.
For `N#Cc1ccc(O[C@H]2CC[C@H](NC(=O)c3cnc(N4CCC5(CC4)CC(CN4CCc6c(ccc7c(C8CCC(=O)NC8=O)noc67)C4)C5)nc3)CC2)cc1Cl` (some centres unmarked) [Compound 130], in that order: under 100 nM and under 1000 nM.
The like results for `N#Cc1ccc(O[C@H]2CC[C@H](NC(=O)c3cnc(N4CCC5(CC4)CC(CN4CCc6ccc7c(C8CCC(=O)NC8=O)noc7c6CC4)C5)nc3)CC2)cc1Cl` (some centres unmarked) [Compound 131] were, in that order, under 100 nM and under 1000 nM.
For `N#Cc1ccc(O[C@H]2CC[C@H](NC(=O)c3cnc(N4CCC(CN5Cc6ccc7c(C8CCC(=O)NC8=O)coc7c6C5)CC4)nc3)CC2)cc1Cl` (some centres unmarked) [Compound 132], in that order: under 1000 nM and under 1000 nM.
For `N#Cc1ccc(O[C@H]2CC[C@H](NC(=O)c3cnc(N4CCC(CN5CCc6ccc7c(C8CCC(=O)NC8=O)coc7c6C5)CC4)nc3)CC2)cc1Cl` (some centres unmarked) [Compound 133], the IC50 in the test with VCaP cells (Homo sapiens, VCaP, 168 h) was under 1000 nM; with LNCaP cells (Homo sapiens) it was under 1000 nM.
For the compound `N#Cc1ccc(O[C@H]2CC[C@H](NC(=O)c3cnc(N4CCC(CN5CCc6c(ccc7c(C8CCC(=O)NC8=O)coc67)C5)CC4)nc3)CC2)cc1Cl` (some centres unmarked) [Compound 134], the IC50 was under 100 nM in the test on VCaP cells (Homo sapiens, VCaP, 168 h) and under 1000 nM in the test on LNCaP cells (Homo sapiens).
Consider `N#Cc1ccc(O[C@H]2CC[C@H](NC(=O)c3cnc(N4CCC(CN5CCc6ccc7c(C8CCC(=O)NC8=O)coc7c6CC5)CC4)nc3)CC2)cc1Cl` (some centres unmarked) [Compound 135], for which the IC50 in the test on LNCaP cells (Homo sapiens) was under 1000 nM.
Regarding `N#Cc1ccc(O[C@H]2CC[C@H](NC(=O)c3cnc(N4CCN(CC5Cc6ccc7c(C8CCC(=O)NC8=O)coc7c6C5)CC4)nc3)CC2)cc1Cl` (some centres unmarked) [Compound 136], the IC50 was under 1000 nM in the test with VCaP cells (Homo sapiens, VCaP, 168 h) and under 1000 nM in the test with LNCaP cells (Homo sapiens).
As to `N#Cc1ccc(O[C@H]2CC[C@H](NC(=O)c3cnc(N4CCN(CC5Cc6ccc7c(C8CCC(=O)NC8=O)coc7c6C5)CC4)nc3)CC2)cc1Cl` (some centres unmarked) [Compound 137], the IC50 with VCaP cells and in the test with LNCaP cells was under 1000 nM throughout.
Compound `N#Cc1ccc(O[C@H]2CC[C@H](NC(=O)c3cnc(N4CCC(CN5Cc6ccc7c(N8CCC(=O)NC8=O)coc7c6C5)CC4)nc3)CC2)cc1Cl` [Compound 138] had an IC50 with LNCaP cells (Homo sapiens) of under 1000 nM.
Consider `N#Cc1ccc(O[C@H]2CC[C@H](NC(=O)c3cnc(N4CCC(CN5CCc6ccc7c(N8CCC(=O)NC8=O)coc7c6C5)CC4)nc3)CC2)cc1Cl` [Compound 139], for which the IC50 with VCaP cells (Homo sapiens, VCaP, 168 h) is under 1000 nM; in the test on LNCaP cells (Homo sapiens), under 1000 nM.
Consider `N#Cc1ccc(O[C@H]2CC[C@H](NC(=O)c3cnc(N4CCC(CN5CCc6ccc7c(N8CCC(=O)NC8=O)coc7c6CC5)CC4)nc3)CC2)cc1Cl` [Compound 141], for which the IC50 in the test with LNCaP cells (Homo sapiens) is under 1000 nM.
On to `N#Cc1ccc(O[C@H]2CC[C@H](NC(=O)c3cnc(N4CC(CN5CCc6c(ccc7c(C8CCC(=O)NC8=O)noc67)C5)C4)nc3)CC2)cc1Cl` (some centres unmarked) [Compound 142], for which the IC50 in the test on VCaP cells (Homo sapiens, VCaP, 168 h) was under 1000 nM; in the test with LNCaP cells (Homo sapiens), under 1000 nM.
As to `N#Cc1ccc(O[C@H]2CC[C@H](NC(=O)c3cnc(N4CC[C@H](CN5CCc6c(ccc7c(C8CCC(=O)NC8=O)noc67)C5)C4)nc3)CC2)cc1Cl` (some centres unmarked) [Compound 143], the IC50 in the test with LNCaP cells (Homo sapiens) was under 1000 nM.
The compound `N#Cc1ccc(O[C@H]2CC[C@H](NC(=O)c3cnc(N4CC[C@@H](CN5CCc6c(ccc7c(C8CCC(=O)NC8=O)noc67)C5)C4)nc3)CC2)cc1Cl` (some centres unmarked) [Compound 144] gave an IC50 with LNCaP cells (Homo sapiens) of under 1000 nM.
